Format in all cases: biochemical
Assay [1] addresses T1, trypsin, type IX from porcine pancreas (Sus scrofa, UniProt P00761).
T1 construct: purchased Sigma, St. Louis Mo; host or cells: porcine pancreas
Kind of assay: Trypsin Assay. The settings on record: substrate L-BAPNA, 60 min room temperature, OD 405 nm; read-out: Trpysin II IC50. Here is the method: 5 ug/ml trypsin, type IX from porcine pancreas and 0.375 mM N-α-Benzoyl-L-arginine-p-nitroanilide (L-BAPNA) are added to a 96-well assay plate containing either inhibitor or buffer (50 mM Tris-HCl, pH 8.0, 100 mM NaCl, 0.1% BSA). The reactions, in a final volume of 100 ul are measured immediately at 405 nm to determine background absorbance. The plate is incubated at room temperature for 60 min, at which time the rate of hydrolysis of the substrate is measured by monitoring the reaction at 405 nm for the release of p-nitroaniline. Percent inhibition of trypsin activity is calculated from OD405nm value from the experimental and control sample.
Recombinant soluble TF, consisting of amino acids 1-219 of the mature protein sequence was expressed in E. coli and purified using a Mono Q Sepharose FPLC. Recombinant human VIIa was purchased from American Diagnostica, Greenwich Conn. and chromogenic substrate N-Methylsulfonyl-D-phe-gly-arg-p-nitroaniline was prepared by American Peptide Company, Inc., Sunnyvale, Calif. Factor Xa was obtained from Enzyme Research Laboratories, South Bend Ind., thrombin from Calbiochem, La Jolla, Calif., and trypsin and L-BAPNA from Sigma, St. Louis Mo. The chromogenic substrates S-2765 and S-2238 were purchased from Chromogenix, Sweden.

The target of assay [2] is T2, recombinant soluble tissue factor and recombinant human factor VIIa (TF-VIIA) (Homo sapiens, UniProt P08709).
T2 construct: conversion of coagulation factor VII to VIIa by Xa; purchased American Diagnostica, Greenwich Conn; (VIIa); soluble TF made in house in E. coli; host or cells: E. coli (soluble TF)
Kind of assay: TF-VIIa Assay. The settings on record: chromogenic substrate N-Methylsulfonyl-D-phe-gly-arg-p-nitroaniline, 60 min room temperature, OD 405 nm.
Procedure: In this assay 100 nM recombinant soluble tissue factor and 2 nM recombinant human factor VIIa are added to a 96 well assay plate containing 0.4 mM of the substrate, N-Methylsulfonyl-D-phe-gly-arg-p-nitroaniline and either inhibitor or buffer (5 mM CaCl2, 50 mM Tris-HCl, pH 8.0, 100 mM NaCl, 0.1% BSA). The reaction, in a final volume of 100 ul is measured immediately at 405 nm to determine background absorbance. The plate is incubated at room temperature for 60 min, at which time the rate of hydrolysis of the substrate is measured by monitoring the reaction at 405 nm for the release of p-nitroaniline. Percent inhibition of TF-VIIa activity is calculated from OD405nm value from the experimental and control sample.

In a further assay the target is human thrombin (Homo sapiens, UniProt P00734). Kind of assay: Thrombin Assay. Conditions: substrate H-D-Phenylalanyl-L-pipecolyl-L-arginine-p-nitroaniline, 60 min room temperature, OD 405 nm; read-out: Thrombin II IC50.

pIC50: −log10 of the molar value.

T1 sequence (P00761 9-231): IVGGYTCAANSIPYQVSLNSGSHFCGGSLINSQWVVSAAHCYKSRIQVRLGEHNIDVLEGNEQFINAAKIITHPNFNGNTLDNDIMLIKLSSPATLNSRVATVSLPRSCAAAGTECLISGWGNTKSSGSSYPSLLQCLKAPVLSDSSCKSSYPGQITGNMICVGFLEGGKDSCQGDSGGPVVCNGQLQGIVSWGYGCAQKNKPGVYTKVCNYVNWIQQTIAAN
T2 sequence (P08709 213-466 limits assumed): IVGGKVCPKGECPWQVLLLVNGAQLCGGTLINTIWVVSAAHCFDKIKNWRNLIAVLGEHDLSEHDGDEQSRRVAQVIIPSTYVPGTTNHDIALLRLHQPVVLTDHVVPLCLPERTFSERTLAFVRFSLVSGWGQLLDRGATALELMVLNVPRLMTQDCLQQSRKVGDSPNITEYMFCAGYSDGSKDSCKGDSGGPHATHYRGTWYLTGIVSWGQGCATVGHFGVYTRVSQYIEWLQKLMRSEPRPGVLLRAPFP
T2 sequence (P08709 61-212 limits assumed): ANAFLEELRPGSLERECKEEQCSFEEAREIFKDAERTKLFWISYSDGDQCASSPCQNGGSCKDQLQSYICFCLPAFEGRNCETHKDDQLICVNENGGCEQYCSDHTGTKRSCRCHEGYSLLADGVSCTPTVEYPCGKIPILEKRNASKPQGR
T2 sequence (P13726 33-251 partner limits assumed): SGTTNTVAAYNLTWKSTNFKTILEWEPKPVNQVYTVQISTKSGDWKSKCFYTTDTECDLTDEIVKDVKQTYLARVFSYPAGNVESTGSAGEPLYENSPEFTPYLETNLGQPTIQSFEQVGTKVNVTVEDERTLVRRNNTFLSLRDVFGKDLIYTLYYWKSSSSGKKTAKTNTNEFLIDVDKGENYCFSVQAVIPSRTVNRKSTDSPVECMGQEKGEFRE
Procedure for human thrombin: 0.28 nM human thrombin and 0.06 mM H-D-Phenylalanyl-L-pipecolyl-L-arginine-p-nitroaniline dihydrochloride are added to a 96-well assay plate containing either inhibitor or buffer (50 mM Tris-HCl, pH 8.0, 100 mM NaCl, 0.1% BSA). The reaction, in a final volume of 100 ul is measured immediately at 405 nm to determine background absorbance. The plate is incubated at room temperature for 60 min, at which time the rate of hydrolysis of the substrate is measured by monitoring the reaction at 405 nm for the release of p-nitroaniline. Percent inhibition of thrombin activity is calculated from OD405nm value from the experimental and control sample.

For `CC(C)NC1=CC(=O)C(c2ccccc2)=C(CC(=O)NCc2ccc(C(=N)N)cc2)C1=O` [Example 1], in assay [1], the pIC50 (usually the IC50 on a negative log10 scale, so that one unit is a factor of ten) is 6.96.
Turning to `N=C(N)c1ccc(CNC(=O)CC2=C(c3ccccc3)C(=O)C=C(NCCc3ccccc3)C2=O)cc1` [Example 2], the pIC50 was 5.89 in assay [2], 6.02 at human thrombin and 6.13 in assay [1].

The values are drawn from patent publication US6686484B2, “Polycyclic aryl and heteroaryl substituted 1,4-quinones useful for selective inhibition of the coagulation cascade” (Pharmacia Corporation, priority 2000, dated 2004).
